Legend:
Assay type in all cases: biochemical
CDK3/cyclinE (h) = CDK3/cyclinE (h) (Homo sapiens, UniProt Q00526); assay: Kinase profiling C3.5 CDK3/cyclinE human; details: test concentration of 10^−6 M
Experimental: (§1) The in vitro inhibition of a panel of kinases was assessed using either the glass-fiber filter technology as described by Davies, S. P. et al., Biochem J. (2000), 351; p. 95-105. In the glass-fiber filter technology the activity of the kinase of interest is measured using an appropriate substrate that is incubated with the aforementioned kinase protein in the presence of (^33P) radiolabeled ATP. (^33P) Phosporylation of the substrate is subsequently measured as radioactivity bound on a glassfiber-filter.
(§2) All kinases are pre-diluted to a 10× working concentration prior to addition into the assay. The composition of the dilution buffer for each kinase is detailed below.
(§3) All substrates are dissolved and diluted to working stocks in de-ionised water, apart from histone H1 that is stored in 10× working stock in 20 mM MOPS pH 7.4.
(§4) In a final reaction volume of 25 μl, CDK3/cyclinE (h) (5-10 mU) is incubated with 8 mM MOPS pH 7.0, 0.2 mM EDTA, 0.1 mg/ml histone H1, 10 mM MgAcetate and [γ-^33P-ATP] (specific activity approx. 500 cpm/pmol, concentration as required). The reaction is initiated by the addition of the MgATP mix. After incubation for 40 minutes at room temperature, the reaction is stopped by the addition of 5 μl of a 3% phosphoric acid solution. 10 μl of the reaction is then spotted onto a P30 filtermat and washed three times for 5 minutes in 75 mM phosphoric acid and once in methanol prior to drying and scintillation counting.

CDK5/p35 human = CDK5/p35 human (Homo sapiens, UniProt Q00535); assay: Kinase profiling C3.6 CDK5/p35 human; details: CDK5/p35, test concentration of 10^−6 M
Chain of CDK5/p35 human (Q00535 whole entry): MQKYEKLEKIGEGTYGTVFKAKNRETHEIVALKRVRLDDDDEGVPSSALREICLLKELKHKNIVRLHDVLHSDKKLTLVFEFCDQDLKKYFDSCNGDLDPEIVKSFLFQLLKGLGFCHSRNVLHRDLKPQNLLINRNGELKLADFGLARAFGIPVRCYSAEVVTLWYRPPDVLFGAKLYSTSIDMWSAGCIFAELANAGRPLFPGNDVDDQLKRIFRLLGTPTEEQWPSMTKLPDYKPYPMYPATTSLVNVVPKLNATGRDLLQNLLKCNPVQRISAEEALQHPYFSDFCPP
Chain of CDK5/p35 human (Q15078 whole entry partner): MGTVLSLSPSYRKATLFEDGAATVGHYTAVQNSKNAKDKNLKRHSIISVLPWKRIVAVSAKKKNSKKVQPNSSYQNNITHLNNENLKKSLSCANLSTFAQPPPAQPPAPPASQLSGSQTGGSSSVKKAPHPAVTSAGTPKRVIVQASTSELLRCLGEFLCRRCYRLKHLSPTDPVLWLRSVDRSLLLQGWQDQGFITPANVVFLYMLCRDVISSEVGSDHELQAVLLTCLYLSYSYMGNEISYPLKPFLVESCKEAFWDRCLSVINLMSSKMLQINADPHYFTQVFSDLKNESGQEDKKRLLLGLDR
Experimental: as §1, §2, §3
as §4, with “CDK5/p35 human” for “CDK3/cyclinE (h)”

CDK2/cyclinA (h) = CDK2/cyclinA (h) (Homo sapiens, UniProt P24941); assay: Kinase profiling C3.3 CDK2/cyclinA human; details: test concentration of 10^−6 M
Experimental: as §1, §2, §3
as §4, with “CDK2/cyclinA” for “CDK3/cyclinE”

CDK7/cyclinH/MAT1 (h) = CDK7/cyclinH/MAT1 (h) (Homo sapiens, UniProt P50613); assay: Kinase profiling C3.8 CDK7/cyclinH/MAT1 human; details: CDK7/cyclinH/MAT1, test concentration of 10^−6 M
Chain of CDK7/cyclinH/MAT1 (h) (P50613 whole entry): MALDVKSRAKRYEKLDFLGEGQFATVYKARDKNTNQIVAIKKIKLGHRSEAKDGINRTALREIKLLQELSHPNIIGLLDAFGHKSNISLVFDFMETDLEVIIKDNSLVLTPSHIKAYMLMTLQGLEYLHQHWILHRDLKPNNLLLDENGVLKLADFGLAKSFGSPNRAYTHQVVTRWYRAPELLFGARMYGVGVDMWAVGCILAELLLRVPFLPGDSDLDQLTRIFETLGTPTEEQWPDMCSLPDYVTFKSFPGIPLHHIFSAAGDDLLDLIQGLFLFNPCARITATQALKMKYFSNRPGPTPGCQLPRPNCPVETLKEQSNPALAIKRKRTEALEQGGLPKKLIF
Chain of CDK7/cyclinH/MAT1 (h) (P51946 whole entry partner): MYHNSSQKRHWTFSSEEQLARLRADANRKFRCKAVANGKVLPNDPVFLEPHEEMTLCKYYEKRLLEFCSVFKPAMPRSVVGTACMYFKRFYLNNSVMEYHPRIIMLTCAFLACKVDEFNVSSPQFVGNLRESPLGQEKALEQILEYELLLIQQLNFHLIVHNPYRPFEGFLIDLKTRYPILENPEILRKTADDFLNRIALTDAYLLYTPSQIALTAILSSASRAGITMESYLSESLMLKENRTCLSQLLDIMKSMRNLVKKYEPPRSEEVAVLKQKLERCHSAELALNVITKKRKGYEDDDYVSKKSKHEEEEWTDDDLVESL
Chain of CDK7/cyclinH/MAT1 (h) (P51948 whole entry partner): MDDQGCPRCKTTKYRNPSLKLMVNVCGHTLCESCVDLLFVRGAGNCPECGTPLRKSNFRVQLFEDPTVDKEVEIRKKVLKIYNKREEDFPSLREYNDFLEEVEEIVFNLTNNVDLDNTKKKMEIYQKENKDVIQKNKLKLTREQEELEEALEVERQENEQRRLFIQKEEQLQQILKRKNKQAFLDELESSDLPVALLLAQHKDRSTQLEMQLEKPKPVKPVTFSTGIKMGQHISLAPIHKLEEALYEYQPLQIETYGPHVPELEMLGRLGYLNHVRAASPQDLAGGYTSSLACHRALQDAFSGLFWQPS
Experimental: as §1, §2, §3
as §4, with “CDK7/cyclinH/MAT1” for “CDK3/cyclinE”, “500 μM peptide,” for “0.1 mg/ml histone H1,”

CDK2/cyclinE (h) = CDK2/cyclinE (h) (Homo sapiens, UniProt P24941); assay: Kinase profiling C3.4 CDK2/cyclinE human; details: test concentration of 10^−6 M
Experimental: as §1, §2, §3
as §4, with “CDK2/cyclinE” for “CDK3/cyclinE”

GSK-3β = GSK-3β (Homo sapiens, UniProt P49841); assay: GSK-3 kinase assay (C1), GSK-3β; details: 1 μM ATP, read-out: C1 Score β
Chain of GSK-3β (P49841 whole entry, species assumed): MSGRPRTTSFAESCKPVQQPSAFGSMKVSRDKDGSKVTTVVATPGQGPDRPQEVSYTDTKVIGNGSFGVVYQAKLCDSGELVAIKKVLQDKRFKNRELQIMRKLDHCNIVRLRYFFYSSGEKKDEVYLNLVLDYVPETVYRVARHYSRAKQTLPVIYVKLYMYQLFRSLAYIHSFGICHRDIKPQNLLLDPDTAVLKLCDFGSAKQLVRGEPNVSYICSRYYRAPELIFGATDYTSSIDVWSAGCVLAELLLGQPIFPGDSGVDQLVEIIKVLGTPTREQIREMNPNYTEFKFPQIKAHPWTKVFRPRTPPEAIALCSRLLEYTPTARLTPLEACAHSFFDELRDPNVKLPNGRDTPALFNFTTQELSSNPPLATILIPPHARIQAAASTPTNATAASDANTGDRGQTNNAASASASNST
Experimental: (§5) In vitro GSK-3 assays were performed at room temperature in a 100 μl reaction volume of 25 mM Tris (pH 7.4) containing 10 mM MgCl2.6H2O, 1 mM DTT, 0.1 mg/ml BSA, 5% glycerol, 5.7 ng/μl GSK-3β or 0.25 ng/μl GSK-3α, 5 μM biotinylated CREB peptide, 1 μM ATP, 0.85 μCi/ml ^33P-ATP and a suitable amount of a test compound. After one hour, the reaction was terminated by adding 70 μl of Stop mix (0.1 mM ATP, 5 mg/ml streptavidin coated PVT SPA beads, pH 11.0). The beads were allowed to settle overnight and the radioactivity attached to the beads was counted in a microtiter plate scintillation counter and compared with the results obtained in a control experiment (without the presence of a test compound) in order to determine the percentage of GSK-3 inhibition. The IC50 value, i.e. the concentration (M) of the test compound at which 50% of GSK-3 is inhibited, was calculated from the dose response curve obtained by performing the above-described GSK-3 assay in the presence of different amounts of the test compound. Score 1=pIC50 value<6, Score 2=pIC50 value from 6-7, Score 3=pIC50 value from 7-8, Score 4=pIC50 value>8.

GSK-3α = GSK-3α (Homo sapiens, UniProt P49840); assay: GSK-3 kinase assay (C1), GSK-3α; details: 1 μM ATP, read-out: C1 Score α
Chain of GSK-3α (P49840 whole entry, species assumed): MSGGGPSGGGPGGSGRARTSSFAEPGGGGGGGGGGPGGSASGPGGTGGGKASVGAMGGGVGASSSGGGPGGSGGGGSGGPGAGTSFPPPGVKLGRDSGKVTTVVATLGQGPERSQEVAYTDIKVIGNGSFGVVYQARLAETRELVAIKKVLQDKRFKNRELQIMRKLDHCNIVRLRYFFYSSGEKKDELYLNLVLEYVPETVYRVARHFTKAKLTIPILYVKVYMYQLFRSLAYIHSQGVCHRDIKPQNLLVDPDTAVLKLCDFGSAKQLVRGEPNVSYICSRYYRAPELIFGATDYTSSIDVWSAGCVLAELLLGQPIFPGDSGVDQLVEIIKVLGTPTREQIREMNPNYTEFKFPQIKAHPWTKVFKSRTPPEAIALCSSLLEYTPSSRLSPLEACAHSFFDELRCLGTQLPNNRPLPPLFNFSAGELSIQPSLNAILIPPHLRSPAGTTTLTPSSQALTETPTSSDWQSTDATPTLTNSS
Experimental: as §5

CDK1/cyclinB (h) = CDK1/cyclinB (h) (Homo sapiens, UniProt P06493); assay: Kinase profiling C3.2 CDK1/cyclinB human; details: test concentration of 10^−6 M
Chain of CDK1/cyclinB (h) (P06493 whole entry): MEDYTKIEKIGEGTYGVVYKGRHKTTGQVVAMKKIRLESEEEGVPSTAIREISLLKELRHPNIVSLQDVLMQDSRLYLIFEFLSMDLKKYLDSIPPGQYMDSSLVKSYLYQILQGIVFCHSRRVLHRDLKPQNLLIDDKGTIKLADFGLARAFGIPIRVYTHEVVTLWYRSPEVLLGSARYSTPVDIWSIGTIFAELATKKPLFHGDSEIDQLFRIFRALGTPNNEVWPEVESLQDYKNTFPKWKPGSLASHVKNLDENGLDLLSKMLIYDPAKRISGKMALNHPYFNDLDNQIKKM
Chain of CDK1/cyclinB (h) (P14635 whole entry partner): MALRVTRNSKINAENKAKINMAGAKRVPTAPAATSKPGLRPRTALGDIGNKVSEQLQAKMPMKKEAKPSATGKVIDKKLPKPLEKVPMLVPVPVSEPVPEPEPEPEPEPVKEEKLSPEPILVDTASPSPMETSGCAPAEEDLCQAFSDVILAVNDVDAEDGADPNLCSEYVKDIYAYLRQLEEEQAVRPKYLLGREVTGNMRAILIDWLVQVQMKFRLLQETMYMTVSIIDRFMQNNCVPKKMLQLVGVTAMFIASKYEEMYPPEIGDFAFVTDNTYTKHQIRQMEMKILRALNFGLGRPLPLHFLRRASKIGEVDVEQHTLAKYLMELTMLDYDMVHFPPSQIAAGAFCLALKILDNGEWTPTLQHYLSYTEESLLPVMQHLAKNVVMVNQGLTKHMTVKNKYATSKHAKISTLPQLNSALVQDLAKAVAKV
Experimental: as §1, §2, §3
as §4, with “CDK1/cyclinB” for “CDK3/cyclinE”

IC50 (GSK-3α) [nM]	Compound	also measured
100 to 1000	O=C1NCCCc2cc(ccn2)-c2ncnc(n2)Nc2cc(Cl)cc(c2)CN2CCCC1C2 (stereo not shown) [Compound 39]	C3.5 score (CDK3/cyclinE (h)): 2 (Score 2 = 30-60% inhibition); C3.6 score (CDK5/p35 human): 1 (Score 1 = 10-30% inhibition); C3.3 score (CDK2/cyclinA (h)): 3 (Score 3 = 60-80% inhibition); C3.8 score (CDK7/cyclinH/MAT1 (h)): 3 (Score 3 = 60-80% inhibition); C3.4 score (CDK2/cyclinE (h)): 3 (Score 3 = 60-80% inhibition); IC50 (GSK-3β): 10 to 100 nM; C3.2 score (CDK1/cyclinB (h)): 2 (Score 2 = 30-60% inhibition)
100 to 1000	C[C@@H]1NCc2cccc(c2)Nc2ncnc(n2)-c2cccc(c2)CCCNC1=O [Compound 44]	–
100 to 1000	O=C1NCCCc2cccc(c2)-c2ncnc(n2)Nc2cccc(c2)CN2CCC[C@@H]12 [Compound 56]	–
100 to 1000	O=C1NCCNc2cccc(c2)-c2ncnc(n2)Nc2cccc(c2)CN2CCCC1C2 (stereo not shown) [Compound 61]	–
100 to 1000	C[C@@H]1NCc2cccc(c2)Nc2ncnc(n2)-c2cccc(c2)NCCNC1=O [Compound 63]	–
100 to 1000	O=C1CNCc2cccc(c2)Nc2ncnc(n2)-c2cccc(c2)CCCN1 [Compound 42]	–
100 to 1000	O=C1NCCOc2ccc(cc2)-c2ncnc(n2)Nc2cccc(c2)CN2CCC1CC2 [Compound 73]	–
< 10	CN1CC(=O)NCCOc2cccc(c2)Nc2ncnc(n2)-c2ccnc(c2)C1 [Compound 76]	–
10 to 100	C[C@H]1NCc2cccc(c2)Nc2ncnc(n2)-c2cccc(c2)CCCNC1=O [Compound 47]	–
100 to 1000	CN1CCC(=O)NCCCCc2cc(ccn2)-c2ncnc(n2)Nc2cccc(c2)C1 [Compound 68]	–
100 to 1000	O=C1NCCNc2cccc(c2)-c2ncnc(n2)Nc2cccc(c2)CN[C@H]1Cc1ccccc1 [Compound 64]	–
10 to 100	O=C1CCN2CCN(CCCc3cc(ccn3)-c3ncnc(n3)Nc3cccc(c3)CCN1)CC2 [Compound 29]	IC50 (GSK-3β): 10 to 100 nM
100 to 1000	O=C1NCCNc2cccc(c2)-c2ncnc(n2)Nc2cccc(c2)CN2CCC1CC2 [Compound 62]	–
10 to 100	O=C1NCCCc2cccc(c2)-c2ncnc(n2)Nc2cccc(c2)CN2CCC1CC2 [Compound 51]	–
10 to 100	O=C1NCCCc2cccc(c2)-c2ncnc(n2)Nc2cccc(c2)CN[C@H]1Cc1ccccc1 [Compound 45]	–
10 to 100	CN1CCC(=O)NCCCc2cccc(c2)-c2ncnc(n2)Nc2cccc(c2)C1 [Compound 49]	–

IC50 (GSK-3α) [nM]	Compound	also measured
100 to 1000	O=C1NCCc2cccc(c2)Nc2ncnc(n2)-c2ccnc(c2)CCCN2CCCC12 (stereo not shown) [Compound 28]	IC50 (GSK-3β): 10 to 100 nM
100 to 1000	CC1(C)NCc2cccc(c2)Nc2ncnc(n2)-c2cccc(c2)CCCNC1=O [Compound 48]	–
100 to 1000	C=CCN1CC(=O)NCCNc2ncccc2-c2ncnc(n2)Nc2cccc(c2)C1 [Compound 79]	–
100 to 1000	O=C1CCN2CCN(CC2)Cc2cccc(c2)Nc2ncnc(n2)-c2cccc(c2)NCCN1 [Compound 60]	–
10 to 100	O=C1NCCCc2cccc(c2)-c2ncnc(n2)Nc2cccc(c2)CN2CCCC1C2 (stereo not shown) [Compound 55]	–
100 to 1000	CN1CC(=O)NCCNc2cccc(c2)-c2ncnc(n2)Nc2cccc(c2)C1 [Compound 43]	IC50 (GSK-3β): 10 to 100 nM
10 to 100	O=C1NCCCc2cc(ccn2)-c2ncnc(n2)Nc2cccc(c2)CN2CCC1CC2 [Compound 16]	IC50 (GSK-3β): 10 to 100 nM
10 to 100	O=C1COc2cccc(c2)Nc2ncnc(n2)-c2ccnc(c2)CCCN1 [Compound 74]	–
100 to 1000	O=C1NCCCc2cc(ccn2)-c2ncnc(n2)Nc2cc(Cl)cc(c2)CN2CCC[C@@H]12 [Compound 38]	C3.5 score (CDK3/cyclinE (h)): 3 (Score 3 = 60-80% inhibition); C3.6 score (CDK5/p35 human): 2 (Score 2 = 30-60% inhibition); C3.3 score (CDK2/cyclinA (h)): 4 (Score 4 = >80% inhibition); C3.8 score (CDK7/cyclinH/MAT1 (h)): 3 (Score 3 = 60-80% inhibition); C3.4 score (CDK2/cyclinE (h)): 4 (Score 4 = >80% inhibition); IC50 (GSK-3β): 100 to 1000 nM; C3.2 score (CDK1/cyclinB (h)): 4 (Score 4 = >80% inhibition)
10 to 100	O=C1NCCCc2cccc(c2)-c2ncnc(n2)Nc2cccc(c2)CN2C[C@@H](O)C[C@H]12 [Compound 50]	–
100 to 1000	O=C1CCN2CCN(CC2)Cc2cccc(c2)Nc2ncnc(n2)-c2cccc(c2)CCCN1 [Compound 57]	–
10 to 100	CN1CCCC(=O)NCCCc2cccc(c2)-c2ncnc(n2)Nc2cccc(c2)C1 [Compound 53]	–
100 to 1000	C[C@H]1NCCCc2cccc(c2)-c2ncnc(n2)Nc2ccccc2CNC1=O [Compound 80]	–
10 to 100	O=C1COc2cccc(c2)Nc2ncnc(n2)-c2ccnc(c2)CCCN2CCN1CC2 [Compound 78]	–
100 to 1000	CN1CC(=O)N2CCN(CCc3cc(ccn3)-c3ncnc(n3)Nc3cccc(c3)C1)CC2 [Compound 77]	–

Reference: patent US8778919B2, “Cyclic anilino—pyridinotriazines” (Janssen Pharmaceutica NV, priority 2005, dated 2014)
